Values quoted from earlier work, collected in patent US11666634B2, “Methods and compositions for management of gastrointestinal disorders” (THE BOARD OF REGENTS OF THE UNIVERSITY OF TEXAS SYSTEM, priority 2019, dated 2023).

CC[C@H](C)[C@H](NC(=O)[C@@H]1CCCN1C(=O)CNC(=O)[C@H](Cc1ccccc1)NC(=O)[C@H](CC(N)=O)NC(=O)[C@H](CC(N)=O)NC(=O)[C@H](CO)NC(=O)[C@H](CO)NC(=O)[C@H](Cc1c[nH]cn1)NC(=O)[C@@H](NC(=O)[C@H](CC(C)C)NC(=O)[C@H](Cc1ccccc1)NC(=O)[C@H](CC(N)=O)NC(=O)[C@H](C)NC(=O)[C@H](CC(C)C)NC(=O)[C@H](CCCNC(=N)N)NC(=O)[C@H](CCC(N)=O)NC(=O)[C@@H](NC(=O)[C@H](C)NC(=O)[C@@H]1CSSC[C@H](NC(=O)[C@@H](N)CCCCN)C(=O)N[C@@H](CC(N)=O)C(=O)N[C@@H]([C@@H](C)O)C(=O)N[C@@H](C)C(=O)N[C@@H]([C@@H](C)O)C(=O)N1)[C@@H](C)O)C(C)C)C(=O)N[C@@H](CC(C)C)C(=O)N1CCC[C@H]1C(=O)N1CCC[C@H]1C(=O)N[C@H](C(=O)N[C@@H](CC(N)=O)C(=O)N[C@H](C(=O)NCC(=O)N[C@@H](CO)C(=O)N[C@@H](CC(N)=O)C(=O)N[C@H](C(=O)N[C@@H](Cc1ccc(O)cc1)C(N)=O)[C@@H](C)O)C(C)C)[C@@H](C)O [Pramlintide, pramlintide]
gastric emptying half time (gastric emptying of a liquid, delayed from a half time of 30 minutes without pramlintide): 110 min | rate of gastric emptying (result in words): significantly decreased
